The numbers were not newly measured in patent EP4810529A1, “1,1-DICYANOETHYLENE-CONTAINING COMPOSITION, CURED PRODUCT, LAMINATE, AND METHOD FOR PRODUCING 1,1-DICYANOETHYLENE-CONTAINING COMPOSITION” (Kuraray Co., Ltd., priority 2023, dated 2025), which cites them from elsewhere.

In general, pKa refers to the negative logarithm of the acid dissociation constant.

For the series the following is noted: logarithmic acid dissociation constant, room temperature, aqueous system, first stage.

Take `O=[N+]([O-])O` [nitric acid]: the pKa is given as -1.3.
